Entries after “also recorded” stand apart in the source; their conditions may differ.
What was measured:
Type in all cases: cell-based
[1] = tested on: Candida albicans wild type strain SN250; assay: Screen for inhibition of Candida albicans lawn formation (halo) on solid YPD plates; conditions: for inhibition of C. albicans growth (halo formation) on YPD plates: 5 μl of 10 mM drug on fungal lawn, 25° C. and 37° C.
Description: (§1) C. albicans was plated on solid YPD and serum plates, and 5 μl of each 10 mM drug was placed on top of the fungal lawn. The effect of exposure to each of the compounds from the library was assayed for its ability to inhibit C. albicans growth, as well as ability to form a halo within the fungal lawn. […] (FIG. 1A).
(§2) High-throughput Screening Assay: The sensitivity of C. albicans against compounds was assessed by a high-throughput chemical screen. 200 μl of C. albicans overnight culture were spread onto petri dishes containing either YPD or fetal bovine serum. 5 μl of each drug was placed directly on the agar surface using a multichannel pipette and slight contact of the tip to the agar made to leave an impression to facilitate later analysis. Compounds that were replicated were done on petri dishes, following the same protocol in at least five independent experiments. For the replication studies, only a single drug was placed per plate. The plates were incubated at either 25° C. or 37° C.

[2] = tested on: Candida albicans wild type strain SN250; assay: Screen for inhibition of Candida albicans lawn formation (halo) on solid serum (FBS agar) plates; conditions: 5 μl of 10 mM drug on fungal lawn, 25° C. and 37° C.
Description: as §1
Media and Growth Conditions: C. albicans strains were cultured with 5 ml of YPD (1% yeast extract, 2% peptone, 2% dextrose, pH 6) medium at 30° C. overnight. Bacterial cells were cultured in LB (Luria-Bertani) medium consisting of 5 g Bacto-Tryptone, 2.5 g Bacto-Yeast Extract, 5 g NaCl and 7.5 g of 2% agar if preparing solid plates. The centrifuge tubes were incubated at 37° C. and left shaking overnight at 150 rpm. Fetal bovine serum was incorporated into agar. Fetal bovine serum was preheated in a water bath set at 65° C. […] The agar solution for the serum mixture consisted of 16 g agar, which was then brought up to 300 ml with nanopure water. The agar solution was then autoclaved at 120° C. for 45 minutes. The agar and serum mixtures were then amalgamated while in their isothermal states.
as §2

[3] = tested on: Candida albicans knock-out mutants; assay: Genotypic mutant screening against Octodrine (three knockout libraries, 908 mutant strains); conditions: 5 μl of 10 mM drug on YPD plates, 30° C. overnight
Description: In order to identify C. albicans proteins and signaling pathways that mediate the lethality of Octodrine, three C. albicans knockout libraries were screened for any alterations in sensitivity to 10 mM Octodrine—collectively consisting of 908 mutant strains each strain lacking one of the virulence genes. These libraries consisted of 647 mutant strains lacking one of the essential virulence genes (Noble, S M et al., 2010, Nat Genet 42:590-598, the entire content of which is herein incorporated by reference); 96 cell wall protein mutants (Norice, C T et al., 2007, Eukaryot Cell 6:2046-2055, the entire content of which is herein incorporated by reference); and 165 transcription factors mutants (Nobile, C J et al., 2005, Curr Biol 15:1150-1155, the entire content of which is herein incorporated by reference).
Genotypic Mutant Screening Against Octodrine: Each C. albicans knockout strain was cultured in individual wells of a 96 well plate in 100 μl of YPD media overnight at 30° C. 5 μl of each Candida knock-out overnight culture was spotted onto a YPD solid plate using a multichannel pipette. The cells were then left to absorb into the YPD plates for 1 hour at 25° C. Using a multichannel pipette, 5 μl of Octodrine 10 mM was spotted directly on top of the C. albicans cells. The plates were then placed in an incubator set at 30° C. and left overnight. […]

[4] = tested on: Escherichia coli strain C600; assay: Halo formation in bacterial lawn, gram-negative bacteria; conditions: 5 μl of neat form (3 mg of undiluted)
Description: (§3) In order to test if Octodrine kills microorganisms by targeting their non-protein cellular components, Escherichia coli and Bacillus cereus, gram-negative and gram-positive bacteria respectively, were exposed to Octodrine.
(§4) Candida albicans and Bacterial Strains: The Candida albicans wild type strain SN250 was used for the high-throughput screening experiments. The bacterial strain consisted of Bacillus cereus strain 10987 and Escherichia coli strain C600. The genotypic screen for mutant sensitivity to Octodrine was tested with three C. albicans libraries that were previously created as disclosed in Noble, 2010, supra; Rauceo, J M et al., 2008, Mol Biol Cell 19:2741-2751; and Homann, O R et al., 2009, PLoS Genet 5:e1000783, the entire contents of all of which are herein incorporated by reference.
(§5) Media and Growth Conditions: C. albicans strains were cultured with 5 ml of YPD (1% yeast extract, 2% peptone, 2% dextrose, pH 6) medium at 30° C. overnight. Bacterial cells were cultured in LB (Luria-Bertani) medium consisting of 5 g Bacto-Tryptone, 2.5 g Bacto-Yeast Extract, 5 g NaCl and 7.5 g of 2% agar if preparing solid plates. The centrifuge tubes were incubated at 37° C. and left shaking overnight at 150 rpm. Fetal bovine serum was incorporated into agar. Fetal bovine serum was preheated in a water bath set at 65° C. […]

[5] = tested on: Bacillus cereus strain 10987; assay: Halo formation in bacterial lawn, gram-positive bacteria; conditions: 5 μl of neat form (3 mg of undiluted)
Description: as §3, §4, §5

[6] = tested on: RAW264.7 mouse macrophage cells; assay: Mammalian cell survival assay (MTT); conditions: RAW264.7, 1 μl of 10 mM drug in 100 μl media with two-fold dilutions, 24 hours
Description: Mammalian cell culture, drug treatment, and survival assay: RAW264.7 mouse macrophage cells were maintained in DMEM (Dulbecco's Modified Eagle Medium, Sigma-Aldrich) supplemented with 10% FBS (fetal bovine serum, Bioexpress) and 100 μg/mL penicillin and 100 μg/mL streptomycin. RAW264.7 cells (10,000 per well) were seeded in 96-well plates (100 μL/well) 24 hours before the assay. During the assay, 1 μl of 10 mM drug was added to 100 μl of cell-containing media. Two-fold serial dilutions of the media were performed. Cells were treated with drugs for 24 hours, and determination of cell viability by 3-(4,5-dimethylthiazol-2-yl)-2,5-diphenyltetrazolium bromide (MTT) assay was performed as described in Lu et al., 2004, Proc Natl Acad Sci USA 101:17246-17251, the entire content of which is herein incorporated by reference.
Each data point shown in the figure for MTT assays represents the average of results from at least two wells in each of at least two separate experiments. Cell viability is shown as the percentage of survivors obtained relative to untreated cells (100%).

[7] = tested on: Candida albicans wild type strain SN250; assay: Screen for inhibition of Candida albicans lawn formation (halo) on solid serum (FBS agar) plates; conditions: 5 μl of undiluted (neat) drug, approximately 3 mg, middle of serum-grown lawn

Row | Molecule | inhibition of C. albicans growth (halo formation) on YPD plates [1] | inhibition of C. albicans growth (halo formation) on serum plates [2] | other results
1 | Clc1ccc(COC(Cn2ccnc2)c2ccc(Cl)cc2Cl)c(Cl)c1 (stereo not drawn) [Miconazole] | strong inhibition | weak inhibition | 
2 | CC(C)n1c(/C=C/C(O)CC(O)CC(=O)O)c(-c2ccc(F)cc2)c2ccccc21 (stereo not drawn) [Fluvastatin] |  | failed to inhibit | 
3 | CC(C)CCCC(C)N (stereo not drawn) [Octodrine, 6-methylheptan-2-amine] | moderate-to-weak anti-Candida activity and mild | strong fungal growth inhibition; also recorded: prominent ability to kill; also recorded: most prominent drug that killed C. albicans in serum; also recorded: best Candida growth inhibition | sensitivity of C. albicans knockout mutants relative to wild type [3]: as sensitive as their wild type strains; also recorded: no C. albicans mutants (FIG. 3) showed a decrease in sensitivity; halo formation in E. coli lawn [4]: formed prominent halos; also recorded: capable of killing; halo formation in B. cereus lawn [5]: formed prominent halos; also recorded: capable of killing; survival of mouse macrophages (cell viability relative to untreated cells) [6]: the same as to the DMSO alone; also recorded: did not affect the sensitivity; elimination of serum-grown Candida lawn by undiluted drug [7]: sufficient to eliminate most of the whole fungal lawn
4 | Antimycin A | strong inhibition | weak inhibition | 
5 | OC(Cn1cncn1)(Cn1cncn1)c1ccc(F)cc1F [Fluconazole] | strong inhibition | weak inhibition | inhibition of C. albicans growth (halo formation) on YPD plates ([1]; listed as fluconazole): effective inhibitor; also recorded: prominent halos; effectiveness at forming halos at 37° C. compared to 25° C. ([1]; 5 μl of 10 mM drug, 37° C. versus 25° C.): diminished effectiveness
6 | Cc1ccc2c(Cl)cc(Cl)c(O)c2n1 [Chlorquinaldol] |  | strongest inhibition | 
7 | [O-][n+]1ccccc1[S-].[O-][n+]1ccccc1[S-].[Zn+2] [Pyrithione Zinc] | strong inhibition | weak inhibition | 
8 | COc1c(C)c2c(c(O)c1C/C=C(\C)CCC(=O)O)C(=O)OC2 [Mycophenolic acid] | very strong inhibition | failed to inhibit | 
9 | O=[N+]([O-])c1ccc(/C=N/O)o1 [Nifuroxime] |  | weaker inhibition | 
10 | CCCCCCCC(=O)O [Octanoic acid] |  | weaker inhibition | 
11 | O=[N+]([O-])c1ccc(O)c2ncccc12 [Nitroxoline] |  | weaker inhibition | 
12 | Clc1ccccc1C(c1ccccc1)(c1ccccc1)n1ccnc1 [Clotrimazole] | strong inhibition | weak inhibition | 
13 | O=C1C2CC=CCC2C(=O)N1SC(Cl)(Cl)Cl (stereo not drawn) [Captan] | strong inhibition |  | 

Source: patent publication US9439876B2, “Method of treating microbial infections” (priority 2014, dated 2016)
